Data taken from patent US7247634B2, “Rifamycin derivatives effective against drug-resistant microbes” (Cumbre Pharmaceuticals Inc., priority 2004, dated 2007).
≈ marks a conversion by molar mass, not a printed value.

Columns and labels:
Assay type in all cases: cell-based
[1] = test system: Staphylococcus aureus ATCC29213; experiment: MIC, microbroth dilution (NCCLS); details: rifS strain, Cation-Adjusted Mueller-Hinton Broth, 37° C., read-out: Antimicrobial activity (MIC)
[2] = test system: Staphylococcus aureus ATCC29213 rpoB^D417Y; experiment: microbe, parasite or virus in culture; details: ATCC29213, read-out: Antimicrobial activity (MIC)
How it was run: (§1)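 MICs by NCCLS broth microdilution, incubation at 37 °C, in cation-adjusted Mueller-Hinton broth. Strains: rifampin-resistant S. aureus ATCC 29213 with rpoB D417Y or H418Y, and quinolone-resistant EN1252a carrying gyrA S84L plus grlA S80F.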

[3] = test system: Staphylococcus aureus ATCC29213 rpoB^H418Y; experiment: microbe, parasite or virus in culture; details: ATCC29213, read-out: Antimicrobial activity (MIC)
How it was run: as §1

[4] = test system: Staphylococcus aureus EN1252a gyrA^S84L grlA^S80F; experiment: microbe, parasite or virus in culture; details: read-out: Antimicrobial activity (MIC)
How it was run: as §1

[5] = test system: Staphylococcus epidermidis ATCC12228; experiment: MIC, microbroth dilution (NCCLS); details: rifS strain, Cation-Adjusted Mueller-Hinton Broth, 37° C., read-out: Antimicrobial activity (MIC)
[6] = test system: Streptococcus pneumoniae ATCC6303; experiment: MIC, microbroth dilution (NCCLS); details: rifS strain, THY Broth with 1 mg/mL catalase, 5% CO2, 37° C., read-out: Antimicrobial activity (MIC)
[7] = test system: Streptococcus pyogenes ATCC19615; experiment: MIC, microbroth dilution (NCCLS); details: rifS strain, THY Broth, 37° C., read-out: Antimicrobial activity (MIC)
[8] = test system: Enterococcus faecalis ATCC29212; experiment: MIC, microbroth dilution (NCCLS); details: rifS strain, BHI Broth, 37° C., read-out: Antimicrobial activity (MIC)
[9] = test system: Haemophilus influenzae ATCC10211; experiment: MIC, microbroth dilution (NCCLS); details: rifS strain, BHI Broth with NAD and hematin, 37° C., read-out: Antimicrobial activity (MIC)
[10] = test system: Escherichia coli ATCC25922; experiment: MIC, microbroth dilution (NCCLS); details: rifS strain, Cation-Adjusted Mueller-Hinton Broth, 37° C., read-out: Antimicrobial activity (MIC)
[11] = test system: Mycobacterium smegmatis ATCC700084; experiment: MIC, microbroth dilution (NCCLS); details: Mycolicibacterium smegmatis, rifS strain, Middlebrook Broth plus ADC Enrichment, 37° C., read-out: Antimicrobial activity (MIC)

| Compound | MIC [1] [µg/mL] | MIC [2] [µg/mL] | MIC [3] [µg/mL] | MIC [4] [µg/mL] | MIC [5] [µg/mL] | MIC [6] [µg/mL] | MIC [7] [µg/mL] | MIC [8] [µg/mL] | MIC [9] [µg/mL] | MIC [10] [µg/mL] | MIC [11] [µg/mL] |
| --- | --- | --- | --- | --- | --- | --- | --- | --- | --- | --- | --- |
| COc1c(N2CC(NC(=O)C3CN(C4=C5NC(=O)/C(C)=C\C=C\[C@H](C)[C@H](O)[C@@H](C)[C@@H](O)[C@@H](C)[C@H](OC(C)=O)[C@H](C)[C@@H](OC)/C=C/O[C@@]6(C)Oc7c(C)c(O)c(c(c7C6=O)C4=O)C5=O)C3)C2)c(F)cc2c(=O)c(C(=O)O)cn(C3CC3)c12 [Example 47, 3-{3-[1-(3-Carboxy-1-cyclopropyl-6-fluoro-8-methoxy-4-oxo-1,4-dihydroquinolin-7-yl)-azetidin-3-ylcarbamoyl]-azetidin-1-yl}rifamycin S] | 0.004 to 0.5 (≈ 0.00356 to 0.445 µM) | 0.06 to 32 (≈ 0.0534 to 28.5 µM) | 0.06 to 16 (≈ 0.0534 to 14.2 µM) | 0.004 to 0.5 (≈ 0.00356 to 0.445 µM) | 0.008 to 0.063 (≈ 0.00712 to 0.056 µM) | 0.008 to 0.125 (≈ 0.00712 to 0.111 µM) | 0.008 to 0.063 (≈ 0.00712 to 0.056 µM) | 2 to 32 (≈ 1.78 to 28.5 µM) | 0.125 to 2 (≈ 0.111 to 1.78 µM) | 0.125 to 8 (≈ 0.111 to 7.12 µM) | 0.5 to 64 |
| CO[C@H]1/C=C/O[C@@]2(C)Oc3c(C)c(O)c4c(c3C2=O)C(=O)C(N2CC(C(=O)N3CCN(c5ccc(N6C[C@H](CNC(C)=O)OC6=O)cc5F)CC3)C2)=C(NC(=O)/C(C)=C\C=C\[C@H](C)[C@H](O)[C@@H](C)[C@@H](O)[C@@H](C)[C@H](OC(C)=O)[C@@H]1C)C4=O [Example 48, 3-{3-(4-[1-(5-methyl-acetamidyl-2-oxo-oxazolidin-3-yl)-5-fluoro-phen-4-yl]-piperazin-1-ylcarbonyl)-azetidin-1-yl}-rifamycin S] | 0.004 to 0.5 (≈ 0.00359 to 0.449 µM) | 0.06 to 32 (≈ 0.0539 to 28.7 µM) | 0.06 to 16 (≈ 0.0539 to 14.4 µM) | 0.004 to 0.5 (≈ 0.00359 to 0.449 µM) | 0.008 to 0.063 (≈ 0.00719 to 0.0566 µM) | 0.008 to 0.125 (≈ 0.00719 to 0.112 µM) | 0.008 to 0.063 (≈ 0.00719 to 0.0566 µM) | 2 to 32 (≈ 1.8 to 28.7 µM) | 0.125 to 2 (≈ 0.112 to 1.8 µM) | 0.125 to 8 (≈ 0.112 to 7.19 µM) | 0.5 to 64 |
| COc1c(N2CCN(C(=O)C3CCN(C4=C5NC(=O)/C(C)=C\C=C\[C@H](C)[C@H](O)[C@@H](C)[C@@H](O)[C@@H](C)[C@H](OC(C)=O)[C@H](C)[C@@H](OC)/C=C/O[C@@]6(C)Oc7c(C)c(O)c(c(c7C6=O)C4=O)C5=O)CC3)CC2)c(F)cc2c(=O)c(C(=O)O)cn(C3CC3)c12 [Example 51, 3-{4-[4-(3-Carboxy-1-cyclopropyl-6-fluoro-8-methoxy-4-oxo-1,4-dihydroquinolin-7-yl)-piperazin-1-ylcarbonyl]-piperidin-1-yl}rifamycin S] | 0.004 to 0.5 (≈ 0.00343 to 0.429 µM) | 0.06 to 32 (≈ 0.0514 to 27.4 µM) | 0.06 to 16 (≈ 0.0514 to 13.7 µM) | 0.004 to 0.5 (≈ 0.00343 to 0.429 µM) | 0.008 to 0.063 (≈ 0.00686 to 0.054 µM) | 0.008 to 0.125 (≈ 0.00686 to 0.107 µM) | 0.008 to 0.063 (≈ 0.00686 to 0.054 µM) | 2 to 32 (≈ 1.71 to 27.4 µM) | 0.125 to 2 (≈ 0.107 to 1.71 µM) | 0.125 to 8 (≈ 0.107 to 6.86 µM) | 0.5 to 64 |
| COc1c(N2CC(NC(=O)C3CCN(C4=C5NC(=O)/C(C)=C\C=C\[C@H](C)[C@H](O)[C@@H](C)[C@@H](O)[C@@H](C)[C@H](OC(C)=O)[C@H](C)[C@@H](OC)/C=C/O[C@@]6(C)Oc7c(C)c(O)c(c(c7C6=O)C4=O)C5=O)CC3)C2)c(F)cc2c(=O)c(C(=O)O)cn(C3CC3)c12 [Example 53, 3-{4-[1-(3-Carboxy-1-cyclopropyl-6-fluoro-8-methoxy-4-oxo-1,4-dihydroquinolin-7-yl)-azetidin-3-ylcarbamoyl]-piperidin-1-yl}rifamycin S] | 0.004 to 0.5 (≈ 0.00347 to 0.434 µM) | 0.06 to 32 (≈ 0.0521 to 27.8 µM) | 0.06 to 16 (≈ 0.0521 to 13.9 µM) | 0.004 to 0.5 (≈ 0.00347 to 0.434 µM) | 0.008 to 0.063 (≈ 0.00694 to 0.0547 µM) | 0.008 to 0.125 (≈ 0.00694 to 0.108 µM) | 0.008 to 0.063 (≈ 0.00694 to 0.0547 µM) | 2 to 32 (≈ 1.74 to 27.8 µM) | 0.125 to 2 (≈ 0.108 to 1.74 µM) | 0.125 to 8 (≈ 0.108 to 6.94 µM) | 0.5 to 64 |
| CO[C@H]1/C=C/O[C@@]2(C)Oc3c(C)c(O)c4c(c3C2=O)C(=O)C(N2CCN(c3nc5c(cc3F)c(=O)c(C(=O)O)cn5C3CC3)CC2)=C(NC(=O)/C(C)=C\C=C\[C@H](C)[C@H](O)[C@@H](C)[C@@H](O)[C@@H](C)[C@H](OC(C)=O)[C@@H]1C)C4=O [Example 55, 3-[1-(3-Carboxy-1-cyclopropyl-6-fluoro-4-oxo-1,4-dihydro-[1,8]naphthyridine-7-yl)-piperazin-4-yl]-rifamycin S] | 0.004 to 0.5 (≈ 0.0039 to 0.487 µM) | 0.06 to 32 (≈ 0.0585 to 31.2 µM) | 0.06 to 16 (≈ 0.0585 to 15.6 µM) | 0.004 to 0.5 (≈ 0.0039 to 0.487 µM) | 0.008 to 0.063 (≈ 0.0078 to 0.0614 µM) | 0.008 to 0.125 (≈ 0.0078 to 0.122 µM) | 0.008 to 0.063 (≈ 0.0078 to 0.0614 µM) | 2 to 32 (≈ 1.95 to 31.2 µM) | 0.125 to 2 (≈ 0.122 to 1.95 µM) | 0.125 to 8 (≈ 0.122 to 7.8 µM) | 0.5 to 64 |
